The values that follow come from patent publication US20230099031A1, “BIFUNCTIONAL AGENTS FOR PROTEIN RECRUITMENT AND/OR DEGRADATION” (Orionis Biosciences, Inc., priority 2019, published 2023).

SMILES strings stand for the structures. Structures can show the parent of a compound that is named as a salt.

In one test the target is T1, CRBN (Homo sapiens, UniProt Q96SW2).
T1 construct: expressed in transfected cells; host or cells: HEK293T
Kind of test: Competition Assay: MAPPIT-like, competition with trimethoprim-lenalidomide hybrid ligand for binding to CRBN in HEK293T cells. Format: cell-based. To be noted: HEK293T cells, 300 nM trimethoprim-lenalidomide hybrid ligand, luciferase 24 hours after compound treatment; read-out: Competition IC50. From the text: A bait protein (protein A) is expressed as a fusion protein in which it is genetically fused to an engineered intracellular receptor domain of the leptin receptor, which is itself fused to the extracellular domain of the erythropoietin (Epo) receptor. Binding of Epo ligand to the EpoR component results in activation of receptor-associated intracellular JAK2. However, activated JAK2 cannot activate the leptin receptor to trigger STAT3 binding and its phosphorylation because its tyrosine residues, normally phosphorylated by activated JAK2, have been mutated. Reconstitution of a JAK2 phosphorylatable STAT3 docking site is instead created through interaction of a protein B with protein A, whereby protein B is fused to a cytoplasmic domain of the gp130 receptor (which now harbors appropriate tyrosine resides recognized by the activated JAK2 kinase). Thus, physical interaction of protein A with protein B reconstitutes and Epo triggers JAK2-STAT3 signaling pathway activation. Activation of STAT3 can be monitored by introduction of a STAT3-responsive reporter gene, including a luciferase-encoding gene or a gene encoding a fluorescent marker such as GFP or some other type of fluorescent protein (EGF etc.). In this manner, the MAPPIT assay provides a versatile assay to assess such recombinant protein-protein interactions, or compound- or hybrid ligand-induced protein-protein interactions, in intact cells.
Formation of the complex results in activation of a STAT-responsive luciferase reporter gene. That signal is set to 100% luciferase activity. In a separate sample set up, cells are prepared in the same manner but, in addition, co-incubated with a test compound whose interaction with CRBN is investigated. […] Increasing concentrations of test compound are assessed to determine CRBN binding efficiency as determined in this type of ligand competition experiment in living cells. Specificity of signal inhibition is assessed by a parallel experimental set up in which test compound effect is assessed for inhibition of signal generated by a control gp130 fusion protein (CTRL) that directly binds to the DHFR-fusion protein in the absence of hybrid ligand (i.e. a direct interaction of the proteins).
In more detail, HEK293T cells are cultured in Dulbecco's modified Eagle's medium supplemented with 10% fetal calf serum, incubated at 37° C., 8% CO2. […] Data points represent the average luciferase activity of triplicate samples derived from cells treated with leptin+test compound for the REM2 control (CTRL) or cells treated with leptin+hybrid ligand+test compound (CRBN) relative to leptin (CTRL) or leptin+hybrid ligand (CRBN) only treated samples (the signals obtained in absence of added test compound for both cases is set at 100% of luciferase activity on y-axis). Error bars represent standard deviations. Curves are fit using 4-parameter nonlinear regression in […] PRISM software
In general, IC50 refers to the concentration needed to halve the response being measured. For `CC/C(=C(\c1ccccc1)c1ccc(OCCN(C)CC(=O)NCCNC(=O)COc2cccc3c2CN(C2CCC(=O)NC2=O)C3=O)cc1)c1ccccc1` (centres unmarked) [Compound 5.56], the half-maximal inhibitory concentration (IC50) was found to be 5.8 µM.

As for `C#CCOCCOCCOCCNc1nc(Nc2ccc3c(c2)CN(C2CCC(=O)NC2=O)C3=O)c2ccsc2n1` (centres unmarked) [Compound 5.01], the half-inhibitory concentration (IC50) turned out to be 0.435 µM.

On to `C#CCOCCOCCOCCNC(=O)c1ccc(CNC(=O)CNc2ccc3c(c2)C(=O)N(C2CCC(=O)NC2=O)C3)cc1` (centres unmarked) [Compound 5.08], for which the concentration for half-maximal inhibition (IC50) is 5.25 µM.

The same test, now with this note: protocol and reagents of Example 1; read-out: IC50 Competition.
`O=C(O)CNc1ccc2c(c1)C(=O)N(C1CCC(=O)NC1=O)C2` (centres unmarked) [Compound C47997, 2-[[2-(2,6-dioxo-3-piperidyl)-3-oxo-isoindolin-5-yl]amino]acetic acid]: the IC50 worked out at 9.1 µM.

Take `O=C1CCC(N2Cc3ccc(NCC(=O)N4CCCCC4)cc3C2=O)C(=O)N1` (centres unmarked) [Compound C12581]: the IC50 came to 10 µM.

`O=C1CCC(N2C(=O)CC3(Cc4ccccc4C3)C2=O)C(=O)N1` (centres unmarked) [Compound C64329, 1′-(2,6-dioxo-3-piperidyl)spiro[indane-2,3′-pyrrolidine]-2′,5′-dione]: the IC50 is 15.1 µM.

Regarding `O=C1c2c(F)c(F)c(F)c(F)c2C(=O)N1c1ccc(F)cc1F` [Compound C34491, 2-(2,4-difluorophenyl)-4,5,6,7-tetrafluoro-isoindoline-1,3-dione], the half-inhibitory concentration (IC50) was 16.1 µM.

Consider `N#Cc1ccc(Nc2ccc3c(c2)C(=O)N(C2CCC(=O)NC2=O)C3)nn1` (centres unmarked) [Compound C80389, 6-[[2-(2,6-dioxo-3-piperidyl)-3-oxo-isoindolin-5-yl]amino]pyridazine-3-carbonitrile], for which the IC50 stood at 0.645 µM.

Turning to `NC(=O)Nc1cccc2c1CN(C1CCC(=O)NC1=O)C2=O` (centres unmarked) [Compound C29490, [2-(2,6-dioxo-3-piperidyl)-1-oxo-isoindolin-4-yl]urea], the concentration for half-maximal inhibition (IC50) stood at 8.86 µM.

With `O=C1CCC(N2Cc3ccc(Nc4cnc5ccccc5n4)cc3C2=O)C(=O)N1` (centres unmarked) [Compound C80386, 3-[1-oxo-6-(quinoxalin-2-ylamino)isoindolin-2-yl]piperidine-2,6-dione], the IC50 amounted to 0.0674 µM.

On to `NC(=O)c1ccc2c(c1)C(=O)N(C1CCC(=O)NC1=O)C2` (centres unmarked) [Compound C39772, 2-(2,6-dioxo-3-piperidyl)-3-oxo-isoindoline-5-carboxamide], for which the IC50 came out at 13.8 µM.

With `CC1Cc2ccccc2N1C(=O)CNc1ccc2c(c1)C(=O)N(C1CCC(=O)NC1=O)C2` (centres unmarked) [Compound C95336, 3-[6-[[2-(2-methylindolin-1-yl)-2-oxo-ethyl]amino]-1-oxo-isoindolin-2-yl]piperidine-2,6-dione], the concentration for half-maximal inhibition (IC50) turned out to be 11.9 µM.

For `CN(C)C(=O)CNc1ccc2c(c1)C(=O)N(C1CCC(=O)NC1=O)C2` (centres unmarked) [Compound C84964, 2-[[2-(2,6-dioxo-3-piperidyl)-3-oxo-isoindolin-5-yl]amino]-N,N-dimethyl-acetamide], the IC50 turned out to be 0.266 µM.

As to `CC1CCN(C(=O)CNc2ccc3c(c2)C(=O)N(C2CCC(=O)NC2=O)C3)CC1` (centres unmarked) [Compound C12582, 3-[6-[[2-(4-methyl-1-piperidyl)-2-oxo-ethyl]amino]-1-oxo-isoindolin-2-yl]piperidine-2,6-dione], the 50% inhibitory concentration (IC50) worked out at 37400 µM.

For `Cc1cc(Nc2ccc3c(c2)C(=O)N(C2CCC(=O)NC2=O)C3)ncn1` (centres unmarked) [Compound C80384, 3-[6-[(6-methylpyrimidin-4-yl)amino]-1-oxo-isoindolin-2-yl]piperidine-2,6-dione], the half-maximal inhibitory concentration (IC50) is 0.179 µM.

Consider `Nc1nc(Nc2ccc3c(c2)CN(C2CCC(=O)NC2=O)C3=O)nc2sccc12` (centres unmarked) [Compound C80379, 3-[5-[(4-aminothieno[2,3-d]pyrimidin-2-yl)amino]-1-oxo-isoindolin-2-yl]piperidine-2,6-dione], for which the IC50 worked out at 0.971 µM.

Consider `O=C1CCC(N2Cc3ccc(NCC(=O)N4Cc5ccccc5C4)cc3C2=O)C(=O)N1` (centres unmarked) [Compound C95330, 3-[6-[(2-isoindolin-2-yl-2-oxo-ethyl)amino]-1-oxo-isoindolin-2-yl]piperidine-2,6-dione], for which the half-inhibitory concentration (IC50) is 0.03 µM.

For `O=C1CCC(N2Cc3ccc(NCC(=O)Nc4ccccc4)cc3C2=O)C(=O)N1` (centres unmarked) [Compound C84965, 2-[[2-(2,6-dioxo-3-piperidyl)-3-oxo-isoindolin-5-yl]amino]-N-phenyl-acetamide], the half-inhibitory concentration (IC50) was determined as 0.2 µM.

In the case of `O=C1CC/C(=C/c2ccccc2)C(=O)N1` [Compound C68121, (3Z)-3-benzylidenepiperidine-2,6-dione], the IC50 came out at 6.5 µM.

Turning to `Cc1cccc2c1C(=O)N(C1CCC(=O)NC1=O)S2(=O)=O` (centres unmarked) [Compound C73349, 3-(4-methyl-1,1,3-trioxo-1,2-benzothiazol-2-yl)piperidine-2,6-dione], the IC50 worked out at 4.95 µM.

Take `O=C1CCC(N2C(=O)C3CCCCC3C2=O)C(=O)N1` (centres unmarked) [Compound C24191, 2-(2,6-dioxo-3-piperidyl)-3a,4,5,6,7,7a-hexahydroisoindole-1,3-dione]: the IC50 came out at 17.7 µM.

As for `CN(C)CC(=O)Nc1ccc2c(c1)C(=O)N(C1CCC(=O)NC1=O)C2` (centres unmarked) [Compound C49708, 2-(dimethylamino)-N-[2-(2,6-dioxo-3-piperidyl)-3-oxo-isoindolin-5-yl]acetamide], the IC50 worked out at 0.752 µM.

Regarding `COc1cccc2c1C(=O)N(C1CCC(=O)NC1=O)C2` (centres unmarked) [Compound C29137, 3-(7-methoxy-1-oxo-isoindolin-2-yl)piperidine-2,6-dione], the IC50 is 0.304 µM.

`O=C1CCC(N2Cc3cc(Nc4ncnc5sccc45)ccc3C2=O)C(=O)N1` (centres unmarked) [Compound C80370, 3-[1-oxo-5-(thieno[2,3-d]pyrimidin-4-ylamino)isoindolin-2-yl]piperidine-2,6-dione]: the IC50 is 0.0109 µM.

As to `CC(=O)Nc1ccc2c(c1)C(=O)N(C1CCC(=O)NC1=O)C2` (centres unmarked) [Compound C29408, N-[2-(2,6-dioxo-3-piperidyl)-3-oxo-isoindolin-5-yl]acetamide], the IC50 turned out to be 4.92 µM.

As for `Cn1ccnc(Nc2ccc3c(c2)C(=O)N(C2CCC(=O)NC2=O)C3)c1=O` (centres unmarked) [Compound C80387, 3-[6-[(4-methyl-3-oxo-pyrazin-2-yl)amino]-1-oxo-isoindolin-2-yl]piperidine-2,6-dione], the IC50 is 0.0542 µM.

Turning to `C=CCC1c2ccccc2C(=O)N1C1CCC(=O)NC1=O` (centres unmarked) [Compound C96413, 3-(1-allyl-3-oxo-isoindolin-2-yl)piperidine-2,6-dione], the IC50 was found to be 10.4 µM.

On to `O=C1CCC(N2Cc3ccc(Nc4ncnc5ccccc45)cc3C2=O)C(=O)N1` (centres unmarked) [C80382 acetic acid salt, acetic acid;3-[1-oxo-6-(quinazolin-4-ylamino)isoindolin-2-yl]piperidine-2,6-dione], for which the half-maximal inhibitory concentration (IC50) is 0.0334 µM.

In the case of `O=C1CCC(N2C(=O)C=C(c3ccccc3)C2=O)C(=O)N1` (centres unmarked) [Compound C64319, 3-(2,5-dioxo-3-phenyl-pyrrol-1-yl)piperidine-2,6-dione], the IC50 was found to be 42.9 µM.

For `COc1ccc(Br)c2c1C(=O)N(C1CCC(=O)NC1=O)C2` (centres unmarked) [Compound C74668, 3-(4-bromo-7-methoxy-1-oxo-isoindolin-2-yl)piperidine-2,6-dione], the half-maximal inhibitory concentration (IC50) is 0.00189 µM.

Consider `O=C1CCC(N2Cc3cccc([N+](=O)[O-])c3C2=O)C(=O)N1` (centres unmarked) [Compound C99884, 3-(7-nitro-1-oxo-isoindolin-2-yl)piperidine-2,6-dione], for which the IC50 was found to be 1.37 µM.

In the case of `CN(CC1CC1)C(=O)CNc1ccc2c(c1)C(=O)N(C1CCC(=O)NC1=O)C2` (centres unmarked) [Compound C95338, N-(cyclopropylmethyl)-2-[[2-(2,6-dioxo-3-piperidyl)-3-oxo-isoindolin-5-yl]amino]-N-methyl-acetamide], the IC50 was found to be 0.0321 µM.

For the molecule `CC1CN(C(=O)CNc2ccc3c(c2)C(=O)N(C2CCC(=O)NC2=O)C3)CCO1` (centres unmarked) [Compound C12586, 3-[6-[[2-(2-methylmorpholin-4-yl)-2-oxo-ethyl]amino]-1-oxo-isoindolin-2-yl]piperidine-2,6-dione], the IC50 turned out to be 0.383 µM.

For the molecule `O=C1CCC(N2C(=O)c3ccccc3C2OCc2ccccc2)C(=O)N1` (centres unmarked) [3-(1-benzyloxy-3-oxo-isoindolin-2-yl)piperidine-2,6-dione], the concentration for half-maximal inhibition (IC50) came out at 58.3 µM.

Turning to `Cc1cccc2c1S(=O)(=O)N(C1CCC(=O)NC1=O)C2=O` (centres unmarked) [Compound C75688, 3-(7-methyl-1,1,3-trioxo-1,2-benzothiazol-2-yl)piperidine-2,6-dione], the half-maximal inhibitory concentration (IC50) is 14.7 µM.
